Results published in patent US20260022143A1, “Cyclic Peptide Inhibitors of IL-23” (JANSSEN PHARMACEUTICA NV, priority 2022, published 2026).
Starred links: 1 amine or outer side, 2 acyl side, 3 side chain; linkers in the order of their positions; H or OH if unused. Positions of bridges follow the written chain, without caps; N, C: chain ends. Non-standard residues stand in square brackets, D forms with d. Residues, ends and D or L forms follow the SMILES beside them. *: point of attachment. X16 = C[N+](C)(C)Cc1cn(-c2ccc(C[C@H](N[*:1])C(=O)[*:2])cc2)nn1; Me3N+(CH2)2O(CH2)2O(CH2)2CO = C[N+](C)(C)CCOCCOCCC(=O)*; Phe(4-guanidino) = N=C(N)Nc1ccc(C[C@H](N)C(=O)O)cc1; Phe(4-N3) = [N-]=[N+]=Nc1ccc(C[C@H](N)C(=O)O)cc1; Trp(7-Me) = Cc1cccc2c(C[C@H](N)C(=O)O)c[nH]c12; Lys(Me3) = C[N+](C)(C)CCCC[C@H](N)C(=O)O; Dab(NMeAc) = CC(=O)N(C)CC[C@H](N)C(=O)O; 2Nal = N[C@@H](Cc1ccc2ccccc2c1)C(=O)O; AEF = NCCOc1ccc(C[C@H](N)C(=O)O)cc1; 3Pal = N[C@@H](Cc1cccnc1)C(=O)O; Cit = NC(=O)NCCC[C@H](N)C(=O)O; Lys(Me) = CNCCCC[C@H](N)C(=O)O; Pen = CC(C)(S)[C@H](N)C(=O)O; Thp = NC1(C(=O)O)CCOCC1; X3 = C[N+](C)(C)CCCCC*; Sar = CNCC(=O)O

How the values were obtained:
IL-23R = target: T1, IL-23R (Homo sapiens, UniProt Q5VWK5); assay: IL23R Reporter Assay; format: cell-based; settings: HEK293 cells containing IL-23R, IL-12RP1 and STAT-inducible firefly luciferase reporter; 10 ng/mL IL-23 (EC90); 5 h at 37° C.; read-out: IL23R Reporter Assay
T1 construct: host or cells: HEK293
T1 sequence (Q5VWK5 24-629): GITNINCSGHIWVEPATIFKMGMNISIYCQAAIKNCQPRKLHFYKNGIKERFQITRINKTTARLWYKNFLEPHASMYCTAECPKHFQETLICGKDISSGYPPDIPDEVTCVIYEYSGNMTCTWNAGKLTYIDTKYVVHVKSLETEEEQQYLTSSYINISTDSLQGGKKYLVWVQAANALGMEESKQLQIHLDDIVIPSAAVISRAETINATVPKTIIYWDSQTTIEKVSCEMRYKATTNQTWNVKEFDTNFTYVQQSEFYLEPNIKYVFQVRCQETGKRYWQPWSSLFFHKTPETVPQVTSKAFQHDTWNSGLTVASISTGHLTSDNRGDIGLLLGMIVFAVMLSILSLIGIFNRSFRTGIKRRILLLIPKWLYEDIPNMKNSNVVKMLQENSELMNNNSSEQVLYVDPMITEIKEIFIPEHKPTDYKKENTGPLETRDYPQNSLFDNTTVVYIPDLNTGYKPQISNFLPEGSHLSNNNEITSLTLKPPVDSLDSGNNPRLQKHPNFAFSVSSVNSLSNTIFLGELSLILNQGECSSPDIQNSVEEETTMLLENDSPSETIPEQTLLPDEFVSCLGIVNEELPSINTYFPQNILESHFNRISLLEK

[1] = Exposed Polar Surface Area (EPSA); format: physicochemical; settings: SFC on Chirex 3014 column; sample 1 mM DMSO stock; read-out: EPSA
How it was run: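 Retention-based polarity: supercritical CO2 with 20 mM ammonium formate in MeOH (5–60%, 20%/min), Chirex 3014 column, 35 °C. Calibrated against 8 standards to give EPSA (Å^2); each sample measured twice.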

| SMILES | IC50 (IL-23R) | EPSA [1] |
| --- | --- | --- |
| CC(=O)N(C)CCCC[C@@H]1NC(=O)[C@H](Cc2c[nH]c3c(C)cccc23)NC(=O)[C@H]([C@@H](C)O)NC(=O)[C@H](CC(=O)N(C)C)NC(=O)[C@@H](NC(=O)CCOCCOCC[N+](C)(C)C)C(C)(C)SSC(C)(C)[C@@H](C(=O)N[C@@H](Cc2ccc(OCCCCC[N+](C)(C)C)cc2)C(=O)N[C@@H](Cc2ccc3ccccc3c2)C(=O)NC2(C(=O)N[C@@H](CCN(C)C(C)=O)C(=O)N[C@@H](CC(N)=O)C(=O)N[C@@H](Cc3cccnc3)C(=O)N(C)CC(=O)N(C)C)CCOCC2)NC1=O [compound 301, cPEG3aCO-Pen(3)-N(N(Me)2)-T-7MeW-K(NMeAC)-Pen(3)-TMAPF-2Nal-THP-Dab(NMeAc)-N-3Pya-Sar-CON(Me)2] ({Me3N+(CH2)2O(CH2)2O(CH2)2CO}-[Pen]D(NMe2)T[Trp(7-Me)][Lys(Me)](Ac)[Pen]Y(X3)[2Nal][Thp][Dab(NMeAc)]N[3Pal][Sar]-NMe2; disulfide 1-6) | 0.73 nM | 153 A^2 |
| CC(=O)N(C)CCCC[C@@H]1NC(=O)[C@H](Cc2c[nH]c3c(C)cccc23)NC(=O)[C@H]([C@@H](C)O)NC(=O)[C@H](CC(=O)N(C)C)NC(=O)[C@@H](NC(=O)CCOCCOCC[N+](C)(C)C)C(C)(C)SSC(C)(C)[C@@H](C(=O)N[C@@H](Cc2ccc(NC(=N)N)cc2)C(=O)N[C@@H](Cc2ccc3ccccc3c2)C(=O)NC2(C(=O)N[C@@H](CCCCN(C)C(C)=O)C(=O)N[C@@H](CC(N)=O)C(=O)N[C@@H](Cc3cccnc3)C(=O)N(C)CC(=O)N(C)C)CCOCC2)NC1=O [compound 304, cPEG3aCO-Pen(3)-N(N(Me)2)-T-7MeW-K(NMeAc)-Pen(3)-F(4G)-2Nal-THP-K(NMeAc)-N-3Pya-Sar-CON(Me)2] ({Me3N+(CH2)2O(CH2)2O(CH2)2CO}-[Pen]D(NMe2)T[Trp(7-Me)][Lys(Me)](Ac)[Pen][Phe(4-guanidino)][2Nal][Thp][Lys(Me)](Ac)N[3Pal][Sar]-NMe2; disulfide 1-6) | 1.4 nM | 164 A^2 |
| CC(=O)NCCCC[C@@H]1NC(=O)[C@H](Cc2c[nH]c3c(C)cccc23)NC(=O)[C@H]([C@@H](C)O)NC(=O)[C@H](CC(=O)N(C)C)NC(=O)[C@@H](NC(=O)CCOCCOCC[N+](C)(C)C)C(C)(C)SSC(C)(C)[C@@H](C(=O)N[C@@H](Cc2ccc(OCCCCC[N+](C)(C)C)cc2)C(=O)N[C@@H](Cc2ccc3ccccc3c2)C(=O)NC2(C(=O)N[C@@H](CCN(C)C(C)=O)C(=O)N[C@@H](CC(N)=O)C(=O)N[C@@H](Cc3cccnc3)C(=O)N(C)CC(=O)N(C)C)CCOCC2)NC1=O [compound 308, cPEG3aCO-Pen(3)-N(N(Me)2)-T-7MeW-K(Ac)-Pen(3)-TMAPF-2Nal-THP-Dab(NMeAc)-N-3Pya-Sar-CON(Me)2] ({Me3N+(CH2)2O(CH2)2O(CH2)2CO}-[Pen]D(NMe2)T[Trp(7-Me)]K(Ac)[Pen]Y(X3)[2Nal][Thp][Dab(NMeAc)]N[3Pal][Sar]-NMe2; disulfide 1-6) | 2 nM | 154 A^2 |
| CC(=O)N(C)CCCC[C@@H]1NC(=O)[C@H](Cc2c[nH]c3c(C)cccc23)NC(=O)[C@H]([C@@H](C)O)NC(=O)[C@H](CC(=O)N(C)C)NC(=O)[C@@H](NC(=O)CCOCCOCC[N+](C)(C)C)C(C)(C)SSC(C)(C)[C@@H](C(=O)N[C@@H](Cc2ccc(OCCN)cc2)C(=O)N[C@@H](Cc2ccc3ccccc3c2)C(=O)NC2(C(=O)N[C@@H](CCCCN(C)C(C)=O)C(=O)N[C@@H](CC(N)=O)C(=O)N[C@@H](Cc3cccnc3)C(=O)N(C)CC(=O)N(C)C)CCOCC2)NC1=O [compound 320, cPEG3aCO-Pen(3)-N(N(Me)2)-T-7MeW-K(NMeAc)-Pen(3)-AEF-2Nal-THP-K(NMeAc)-N-3Pya-Sar-CON(Me)2] ({Me3N+(CH2)2O(CH2)2O(CH2)2CO}-[Pen]D(NMe2)T[Trp(7-Me)][Lys(Me)](Ac)[Pen][AEF][2Nal][Thp][Lys(Me)](Ac)N[3Pal][Sar]-NMe2; disulfide 1-6) | 0.95 nM | 162 A^2 |
| CC(=O)N(C)CCCC[C@@H]1NC(=O)[C@H](Cc2c[nH]c3c(C)cccc23)NC(=O)[C@H]([C@@H](C)O)NC(=O)[C@H](CC(=O)N(C)C)NC(=O)[C@@H](NC(=O)CCOCCOCC[N+](C)(C)C)C(C)(C)SSC(C)(C)[C@@H](C(=O)N[C@@H](Cc2ccc(OCCCCC[N+](C)(C)C)cc2)C(=O)N[C@@H](Cc2ccc3ccccc3c2)C(=O)NC2(C(=O)N[C@@H](CCCCN(C)C(C)=O)C(=O)N[C@@H](CC(N)=O)C(=O)N[C@@H](Cc3cccnc3)C(=O)N(C)CC(N)=O)CCOCC2)NC1=O [compound 326, cPEG3aCO-Pen(3)-N(N(Me)2)-T-7MeW-K(NMeAc)-Pen(3)-TMAPF-2Nal-THP-K(NMeAc)-N-3Pya-Sar-CONH2] ({Me3N+(CH2)2O(CH2)2O(CH2)2CO}-[Pen]D(NMe2)T[Trp(7-Me)][Lys(Me)](Ac)[Pen]Y(X3)[2Nal][Thp][Lys(Me)](Ac)N[3Pal][Sar]-NH2; disulfide 1-6) | 0.85 nM | 157 A^2 |
| CC(=O)N(C)CCCC[C@@H]1NC(=O)[C@H](Cc2c[nH]c3c(C)cccc23)NC(=O)[C@H]([C@@H](C)O)NC(=O)[C@H](CC(=O)N(C)C)NC(=O)[C@@H](NC(=O)CCOCCOCC[N+](C)(C)C)C(C)(C)SSC(C)(C)[C@@H](C(=O)N[C@@H](Cc2ccc(OCCCCC[N+](C)(C)C)cc2)C(=O)N[C@@H](Cc2ccc3ccccc3c2)C(=O)NC2(C(=O)N[C@@H](CCCNC(N)=O)C(=O)N[C@@H](CC(N)=O)C(=O)N[C@@H](Cc3cccnc3)C(=O)N(C)CC(=O)N(C)C)CCOCC2)NC1=O [compound 327, cPEG3aCO-Pen(3)-N(N(Me)2)-T-7MeW-K(NMeAc)-Pen(3)-TMAPF-2Nal-THP-Cit-N-3Pya-Sar-CON(Me)2] ({Me3N+(CH2)2O(CH2)2O(CH2)2CO}-[Pen]D(NMe2)T[Trp(7-Me)][Lys(Me)](Ac)[Pen]Y(X3)[2Nal][Thp][Cit]N[3Pal][Sar]-NMe2; disulfide 1-6) | 1.2 nM | 157 A^2 |
| CC(=O)N(C)CCCC[C@@H]1NC(=O)[C@H](Cc2c[nH]c3c(C)cccc23)NC(=O)[C@H]([C@@H](C)O)NC(=O)[C@H](CCCC[N+](C)(C)C)NC(=O)[C@@H](NC(=O)CCOCCOCC[N+](C)(C)C)C(C)(C)SSC(C)(C)[C@@H](C(=O)N[C@@H](Cc2ccc(OCCCCC[N+](C)(C)C)cc2)C(=O)N[C@@H](Cc2ccc3ccccc3c2)C(=O)NC2(C(=O)N[C@@H](CCCCN(C)C(C)=O)C(=O)N[C@@H](CC(N)=O)C(=O)N[C@@H](Cc3cccnc3)C(=O)N(C)CC(=O)N(C)C)CCOCC2)NC1=O [compound 328, cPEG3aCO-Pen(3)-K(Me)3-T-7MeW-K(NMeAc)-Pen(3)-TMAPF-2Nal-THP-K(NMeAc)-N-3Pya-Sar-CON(Me)2] ({Me3N+(CH2)2O(CH2)2O(CH2)2CO}-[Pen][Lys(Me3)]T[Trp(7-Me)][Lys(Me)](Ac)[Pen]Y(X3)[2Nal][Thp][Lys(Me)](Ac)N[3Pal][Sar]-NMe2; disulfide 1-6) | 1.2 nM | 159 A^2 |
| CC(=O)N(C)CCCC[C@@H]1NC(=O)[C@H](Cc2c[nH]c3c(C)cccc23)NC(=O)[C@H]([C@@H](C)O)NC(=O)[C@H](CC(=O)N(C)C)NC(=O)[C@@H](NC(=O)CCOCCOCC[N+](C)(C)C)C(C)(C)SSC(C)(C)[C@@H](C(=O)N[C@@H](Cc2ccc(N=[N+]=[N-])cc2)C(=O)N[C@@H](Cc2ccc3ccccc3c2)C(=O)NC2(C(=O)N[C@@H](CCCCN(C)C(C)=O)C(=O)N[C@@H](CC(N)=O)C(=O)N[C@@H](Cc3cccnc3)C(=O)N(C)CC(=O)N(C)C)CCOCC2)NC1=O [compound 331, cPEG3aCO-Pen(3)-N(N(Me)2)-T-7MeW-K(NMeAc)-Pen(3)-F(4N3)-2Nal-THP-K(NMeAc)-N-3Pya-Sar-CON(Me)2] ({Me3N+(CH2)2O(CH2)2O(CH2)2CO}-[Pen]D(NMe2)T[Trp(7-Me)][Lys(Me)](Ac)[Pen][Phe(4-N3)][2Nal][Thp][Lys(Me)](Ac)N[3Pal][Sar]-NMe2; disulfide 1-6) | 1.2 nM | 153 A^2 |
| CC(=O)N(C)CCCC[C@@H]1NC(=O)[C@H](Cc2c[nH]c3c(C)cccc23)NC(=O)[C@H]([C@@H](C)O)NC(=O)[C@H](CC(=O)N(C)C)NC(=O)[C@@H](NC(=O)CCOCCOCC[N+](C)(C)C)C(C)(C)SSC(C)(C)[C@@H](C(=O)N[C@@H](Cc2ccc(-n3cc(C[N+](C)(C)C)nn3)cc2)C(=O)N[C@@H](Cc2ccc3ccccc3c2)C(=O)NC2(C(=O)N[C@@H](CCCCN(C)C(C)=O)C(=O)N[C@@H](CC(N)=O)C(=O)N[C@@H](Cc3cccnc3)C(=O)N(C)CC(=O)N(C)C)CCOCC2)NC1=O [compound 332, cPEG3aCO-Pen(3)-N(N(Me)2)-T-7MeW-K(NMeAc)-Pen(3)-F(4TzlTMA1)-2Nal-THP-K(NMeAc)-N-3Pya-Sar-CON(Me)2] ({Me3N+(CH2)2O(CH2)2O(CH2)2CO}-[Pen]D(NMe2)T[Trp(7-Me)][Lys(Me)](Ac)[Pen][X16][2Nal][Thp][Lys(Me)](Ac)N[3Pal][Sar]-NMe2; disulfide 1-6) | 1.2 nM | 158 A^2 |
